Test results: patent US9364479B2, “Use of a receptor-type kinase modulator for treating polycystic kidney disease” (SYMPHONY EVOLUTION, INC., priority 2010, dated 2016)
Marks after values point to notes of the source that are not given here.

How the values were obtained:
[1] = tested on: HN5 human tumor xenograft; experiment: HN5 xenograft, tumor growth; type: in vivo; details: Mus musculus; qd × 14
Description: (§1) The response of tumors to treatment was determined by comparing the mean tumor weight of the treatment group with the appropriate control group. Percentage inhibition of tumor growth was determined with the following formula: Percentage inhibition=100×[1−(Xf−Xo)/(Yf−Yo)], where Xf and Yf are the mean tumor weights of the treatment and control groups, respectively, on day f, and Xo and Yo are the mean tumor weights of treatment and control groups respectively, on day zero (staged tumor weights after grouping)

[2] = tested on: HT-29 human tumor xenograft; experiment: HT-29 xenograft, tumor growth; type: in vivo; details: Mus musculus
Description: as §1

Acetylcholinesterase = biological target: T1, Acetylcholinesterase (Homo sapiens, UniProt P22303); experiment: NovaScreen assay; type: biochemical; details: read-out: Inhibition, 10 μM XL-647
T1 construct: NovaScreen

Flt-4 = Flt-4 (Homo sapiens, UniProt P35916); experiment: AlphaScreen tyrosine kinase assay; type: biochemical; parameters: residues D725-R1298 of human Flt-4, Proqinase; purchased Proqinase; details: ATP at Km
Description: Dose-response experiments were done using 10 different inhibitor concentrations in 384-well microtiter plates. The ATP concentration used for each assay was equivalent to the Km for each kinase. IC50 values were calculated by nonlinear regression analysis using the four-variable equation: Y=min+(max−min)/[1+([I]/IC50)N], where Y is the observed signal, [I] is the inhibitor concentration, min is the background signal in the absence of enzyme (0% enzyme activity), max is the signal in the absence of inhibitor (100% enzyme activity), IC50 is the inhibitor concentration required at 50% enzyme inhibition, and N represents the empirical Hill slope as a measure of cooperativity.
An AlphaScreen tyrosine kinase assay was used to measure ErbB2 and Flt-4 activity. Donor beads coated with streptavidin and acceptor beads coated with PY100 anti-phosphotyrosine antibody (Perkin-Elmer) were used. Biotinylated poly(Glu,Tyr) 4:1 was used as the substrate. Substrate phosphorylation was measured by luminescence following donor-acceptor bead addition followed by complex formation. […] After 2 to 16 h of incubation at room temperature, plates were read using an AlphaQuest reader (Perkin-Elmer).

Adenosine, Non-selective = experiment: NovaScreen assay; type: binding
[3] = tested on: Glutamate, NMDA Agonist Site; experiment: NovaScreen assay; type: binding
CYP2D6 = CYP2D6 (Homo sapiens, UniProt P10635)
[4] = tested on: subjects with advanced solid tumors; experiment: Clinical Study XL-647-001 (Phase 1, Intermittent 5&9 schedule)
Description: (§2) Enrollment is complete, and all subjects have been off study as of 31 May 2007. Subjects initially received a powder in bottle (PIB) formulation using mass-based dosing. […] The final cohort received a fixed dose of 350 mg in a tablet formulation.

[5] = as above; details: human, in vivo
Description: as §2

Phospho AKT Ser473 = experiment: Immunohistochemical analysis of phosphorylation in H1975 xenografts; type: in vivo, mouse; details: 14-day dosing
Description: For immunohistochemical analysis of H1975, MDA-MB-231 and other xenografts, tumors were excised after euthanasia and fixed in zinc fixative (BD Biosciences) for 48 h before being processed into paraffin blocks. Serial sections at 5 μm were obtained from the area of largest possible surface for each tumor and stained using standard methods. The following antibodies were used: Ki67 (SP6; Labvision), CD31 (MECA.32; BD Biosciences), pERK^Thr202/Tyr204 (phospho-p44/42 mitogen-activated protein kinase; Cell Signaling Technology), pAKT^Ser473 (Cell Signaling Technology), and pEGFR^Tyr1068 (Cell Signaling Technology). For immunofluorescent staining, sections were then incubated with Alexa 594-conjugated goat anti-rabbit secondary antibody (Invitrogen) and mounted in Fluorescent Mounting Medium (DAKO) containing 4′,6-diamidino-2-phenylindole (Molecular Probes) as a nuclear counterstain. Fluorescent staining was visualized using a Zeiss Axiolmager and digitally captured using a Zeiss high-resolution camera coupled to AxioVision image analysis software. Two to three nonoverlapping representative fields were captured at ×200 or ×400 magnification depending on histologic readout and quantified using the integrated morphometric analysis functions in Metamorph software (Universal Imaging Corp.). Apoptotic cells were detected using terminal deoxynucleotidyl transferase-mediated dUTP nick end labeling in situ cell death detection kit according to the manufacturer's instructions (Roche Diagnostics GmbH).
Results are presented as mean±SD or SE as indicated for each graph or table. For IC50 comparison in the A431 cell viability experiment, two sample Student's t tests were applied to determine P values for each IC50 pair assuming that the random fluctuations of replicates around the dose-response curve are distributed [log]normally with the individual replicates used as the ‘sample size’ for the t test (nine point dose response done in triplicate). For statistical analysis of immunohistochemical results from in vivo studies, two-tailed Student's t test analysis and Bonferroni correction were done to identify significant differences compared with vehicle control group (multiple use of a single vehicle control group) with a cumulative minimal requirement of P<0.05.

[6] = tested on: Nicotinic (a-bungarotoxin insensitive); experiment: NovaScreen assay; type: binding
[7] = biological target: T2, Monoamine Oxidase B, Peripheral (Rattus norvegicus, UniProt P19643); experiment: NovaScreen assay; type: biochemical; details: read-out: Inhibition, 10 μM XL-647
T2 construct: NovaScreen

ErbB2 = ErbB2 (Homo sapiens, UniProt P04626); experiment: AlphaScreen tyrosine kinase assay; type: biochemical; parameters: residues Q679-V1255 of human ErbB2, Proqinase; purchased Proqinase; details: ATP at Km
ErbB2, sequence (P04626 679-1255): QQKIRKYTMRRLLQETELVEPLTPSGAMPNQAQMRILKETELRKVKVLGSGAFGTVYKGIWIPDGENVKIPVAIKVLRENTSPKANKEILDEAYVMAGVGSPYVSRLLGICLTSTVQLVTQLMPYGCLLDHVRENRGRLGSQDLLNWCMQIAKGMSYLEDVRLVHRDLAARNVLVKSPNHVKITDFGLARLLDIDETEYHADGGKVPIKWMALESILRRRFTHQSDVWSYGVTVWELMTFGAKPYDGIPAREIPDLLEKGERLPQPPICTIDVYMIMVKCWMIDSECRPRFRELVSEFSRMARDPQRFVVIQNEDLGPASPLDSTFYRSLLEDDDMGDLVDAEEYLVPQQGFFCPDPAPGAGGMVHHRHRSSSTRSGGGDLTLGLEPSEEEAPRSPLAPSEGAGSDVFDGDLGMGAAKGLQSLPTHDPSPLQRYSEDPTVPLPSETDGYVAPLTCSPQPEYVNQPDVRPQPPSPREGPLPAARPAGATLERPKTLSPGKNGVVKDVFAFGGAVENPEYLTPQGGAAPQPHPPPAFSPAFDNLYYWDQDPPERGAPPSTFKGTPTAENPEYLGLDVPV
Description: An AlphaScreen tyrosine kinase assay was used to measure ErbB2 and Flt-4 activity. Donor beads coated with streptavidin and acceptor beads coated with PY100 anti-phosphotyrosine antibody (Perkin-Elmer) were used. Biotinylated poly(Glu,Tyr) 4:1 was used as the substrate. Substrate phosphorylation was measured by luminescence following donor-acceptor bead addition followed by complex formation. Test compound, 3 μmol/L ATP, 3 nmol/L biotinylated poly(Glu,Tyr) 4:1, and 1 nmol/L ErbB2 (residues Q679-V1255 of human ErbB2, Proqinase) or Flt-4 (residues D725-R1298 of human Flt-4, Proqinase) were combined in a volume of 20 μL Assay Buffer (20 mM TrisHCl, pH 7.5, 10 mM MgCl2, 3 mM MnCl2, 1 mM DTT, 0.01% Triton) in a 384-well white, medium-binding microtiter plate (Greiner). Reaction mixtures were incubated for 1 h at room temperature. Reactions were quenched by addition of 10 μL of 15 to 30 μg/mL AlphaScreen bead suspension containing 75 mmol/L HEPES (pH 7.4), 300 mmol/L NaCl, 120 mmol/L EDTA, 0.3% bovine serum albumin, and 0.03% Tween 20. After 2 to 16 h of incubation at room temperature, plates were read using an AlphaQuest reader (Perkin-Elmer).

T1 sequence (P22303 32-614, species assumed): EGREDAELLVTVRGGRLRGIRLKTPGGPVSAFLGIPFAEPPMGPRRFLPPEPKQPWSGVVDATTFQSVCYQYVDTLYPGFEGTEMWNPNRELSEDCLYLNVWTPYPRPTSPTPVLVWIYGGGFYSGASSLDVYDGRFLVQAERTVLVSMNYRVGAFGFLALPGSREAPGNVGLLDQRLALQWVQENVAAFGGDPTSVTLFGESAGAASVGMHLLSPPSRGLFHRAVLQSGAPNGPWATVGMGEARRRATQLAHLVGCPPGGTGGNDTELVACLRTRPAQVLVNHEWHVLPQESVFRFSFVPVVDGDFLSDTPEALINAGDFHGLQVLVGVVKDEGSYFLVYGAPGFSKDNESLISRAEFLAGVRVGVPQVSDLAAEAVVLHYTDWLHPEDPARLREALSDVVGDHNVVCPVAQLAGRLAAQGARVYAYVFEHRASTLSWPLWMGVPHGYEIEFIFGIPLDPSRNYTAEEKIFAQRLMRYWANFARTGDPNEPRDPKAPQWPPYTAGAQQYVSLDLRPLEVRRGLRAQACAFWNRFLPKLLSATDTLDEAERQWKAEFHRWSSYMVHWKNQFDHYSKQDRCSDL
Flt-4, sequence (P35916 725-1298 isoform P35916-1): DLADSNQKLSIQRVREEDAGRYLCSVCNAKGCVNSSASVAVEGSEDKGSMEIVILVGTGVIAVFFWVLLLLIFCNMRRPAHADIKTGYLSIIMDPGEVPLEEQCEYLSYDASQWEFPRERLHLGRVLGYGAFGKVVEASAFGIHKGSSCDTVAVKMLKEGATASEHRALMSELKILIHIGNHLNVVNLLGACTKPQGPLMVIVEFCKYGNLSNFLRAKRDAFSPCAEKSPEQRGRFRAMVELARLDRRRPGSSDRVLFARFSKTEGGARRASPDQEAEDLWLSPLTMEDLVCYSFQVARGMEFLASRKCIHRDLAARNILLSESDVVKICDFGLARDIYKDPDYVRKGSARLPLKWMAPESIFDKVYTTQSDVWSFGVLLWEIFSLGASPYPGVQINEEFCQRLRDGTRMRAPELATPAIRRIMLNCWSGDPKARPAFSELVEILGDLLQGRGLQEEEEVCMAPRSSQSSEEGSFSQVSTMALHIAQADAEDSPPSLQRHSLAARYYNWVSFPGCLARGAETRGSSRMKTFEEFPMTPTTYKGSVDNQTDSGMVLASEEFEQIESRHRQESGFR
CYP2D6, sequence (P10635 whole entry): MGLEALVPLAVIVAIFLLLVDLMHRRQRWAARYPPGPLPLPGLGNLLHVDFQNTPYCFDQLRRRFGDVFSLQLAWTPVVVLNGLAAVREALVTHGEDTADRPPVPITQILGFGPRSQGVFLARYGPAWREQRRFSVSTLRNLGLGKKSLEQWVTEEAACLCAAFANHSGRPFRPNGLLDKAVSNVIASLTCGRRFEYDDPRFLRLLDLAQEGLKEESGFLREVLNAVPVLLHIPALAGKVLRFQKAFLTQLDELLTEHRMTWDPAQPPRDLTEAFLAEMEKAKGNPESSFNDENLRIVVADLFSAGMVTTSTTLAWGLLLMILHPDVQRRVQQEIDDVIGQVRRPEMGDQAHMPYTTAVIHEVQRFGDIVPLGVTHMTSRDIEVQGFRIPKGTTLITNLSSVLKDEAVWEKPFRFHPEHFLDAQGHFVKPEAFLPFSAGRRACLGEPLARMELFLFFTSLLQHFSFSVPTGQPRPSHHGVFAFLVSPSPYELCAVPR
T2 sequence (P19643 whole entry): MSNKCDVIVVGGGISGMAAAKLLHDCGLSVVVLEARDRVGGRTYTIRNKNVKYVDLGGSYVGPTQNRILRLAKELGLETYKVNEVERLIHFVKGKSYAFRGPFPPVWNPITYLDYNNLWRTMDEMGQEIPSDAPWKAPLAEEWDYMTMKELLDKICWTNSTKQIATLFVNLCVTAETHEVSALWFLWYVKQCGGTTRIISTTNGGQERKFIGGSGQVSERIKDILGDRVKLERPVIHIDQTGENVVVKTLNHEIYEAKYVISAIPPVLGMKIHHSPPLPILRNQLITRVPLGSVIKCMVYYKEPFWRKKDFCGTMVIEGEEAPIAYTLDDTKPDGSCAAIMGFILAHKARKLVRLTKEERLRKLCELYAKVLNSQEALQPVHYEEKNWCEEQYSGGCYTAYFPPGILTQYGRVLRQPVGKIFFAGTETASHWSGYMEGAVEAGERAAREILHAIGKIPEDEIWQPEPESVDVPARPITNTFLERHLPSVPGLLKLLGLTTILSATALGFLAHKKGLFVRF

COc1cc2c(Nc3ccc(Cl)c(Cl)c3F)ncnc2cc1OC[C@@H]1C[C@@H]2CN(C)C[C@@H]2C1 [XL-647, N-(3,4-dichloro-2-fluorophenyl)-7-({[(3aR,5r,6aS)-2-methyloctahydrocyclopenta[c]pyrrol-5-yl]methyl}oxy)-6-(methyloxy)quinazolin-4-amine]
ED50 [1]: < 3 mg/kg
ED50 ([2]; HT-29, qd × 14): 20.2 mg/kg
ED50 ([2]; HT-29, qd × 28): 16 mg/kg
inhibition at 10 µM (Acetylcholinesterase): 49.4%
IC50 (Flt-4): 0.0087 ± 0.0006 µM
Inhibition, 10 μM XL-647 (Adenosine, Non-selective): 47.89%
Inhibition, 10 μM XL-647 [3]: −1.66%
CYP2D6 inhibition, in words (CYP2D6): inhibitor
MTD converted to a fixed dose ([4]; Intermittent 5&9 schedule): 350 mg
subjects with unconfirmed partial response (PR) ([4]; NSCLC, Day 228): one
other subjects with prolonged stable disease lasting greater than 3 months ([4]; intermittent schedule): 14 subjects
MTD [5]: 4.68 mg/kg
Phospho AKT Ser473 % Cells (Phospho AKT Ser473; 10 mg/kg): 19 ± 2.1%
Phospho AKT Ser473 % Reduction (Phospho AKT Ser473; 10 mg/kg): 53.6^a %
Phospho AKT Ser473 % Cells (Phospho AKT Ser473; 30 mg/kg): 12 ± 1.9%
Phospho AKT Ser473 % Reduction (Phospho AKT Ser473; 30 mg/kg): 72.4^a %
Phospho AKT Ser473 % Cells (Phospho AKT Ser473; 100 mg/kg): 11 ± 1.9%
Phospho AKT Ser473 % Reduction (Phospho AKT Ser473; 100 mg/kg): 74.4^a %
Inhibition, 10 μM XL-647 [6]: 53.97%
inhibition at 10 µM [7]: 2.03%
IC50 (ErbB2): 0.016 ± 0.003 µM
